Data on nine compounds can be found in paper PMC4855186, “Characterization of primary human hepatocyte spheroids as a model system for drug-induced liver injury, liver function and disease” (Scientific Reports, 2016).

Data set [1] has as its system PHH spheroids. Kind of data set: Neutral lipid staining (steatosis) in PHH spheroids. The settings on record: 10 μM co-exposure with CsA 30 μM, 48 h; n = 3, p = 0.009. Type of data set: cell-based, human. As to the method:
PHH spheroids were treated with 30 μM cyclosporine A (CsA) and/or 10 μM α-tocopherol (α-TOH) as indicated. After 48 h, spheroids were fixed and incubated with HCS LipidTOX Green neutral lipid stain (1:500). CellProfiler software was used to quantify neutral lipid staining.

Data set [2] concerns PHH spheroids. Kind of data set: Chronic toxicity assay in PHH spheroids, viability by cellular ATP content. Type of data set: cell-based, human. The settings on record: for EC50: viability by ATP content; for Fold changes in EC50 vs. 48 h (8 d): 8 d vs 48 h exposure; for Fold changes in EC50 vs. 48 h (28 d): 28 d vs 48 h exposure. The protocol: Cryopreserved PHH (obtained from […], France or Bioreclamation IVT, USA) or fresh hepatocytes (obtained from patients subject to liver resections at Huddinge University Hospital, Stockholm, Sweden) were used for formation of spheroid cultures. Hepatocytes obtained from patient livers were isolated as previously described. Use of the liver specimens for this purpose was approved by the Ethics Committee at Karolinska Institutet ([…] Stockholm) and studies were carried out in accordance with the approved guidelines. Written informed consent was obtained from all donors of liver material. Cells were seeded into ultra-low attachment 96-well plates (Corning) at 1,500 viable cells per well and subsequently centrifuged at 100 × g for 2 min. Cells were seeded in 100 μl Williams E medium supplemented with 2 mM L-glutamine, 100 units/ml penicillin, 100 μg/ml streptomycin, 10 μg/ml insulin, 5.5 μg/ml transferrin, 6.7 ng/ml sodium selenite, 100 nM dexamethasone, and 10% FBS. Spontaneous self-aggregation of the hepatocytes initiated spheroid formation. From day 4 or 5 after seeding, when the spheroids were sufficiently compact, 50% of the medium was exchanged daily for serum-free medium. Spheroids were maintained in serum-free medium until day 35, with a medium change every 48-72 h. Cell viability was assessed by determining the ATP content of single PHH spheroids with the CellTiter-Glo Luminescent Cell Viability Assay (Promega, Sweden). At the same time-points, cell culture medium was collected and albumin concentrations were determined by ELISA (Bethyl laboratories, USA). Absolute ATP and albumin values were normalized to spheroid volumes as determined from bright field imaging to compensate for compaction. […] Treatment was started on day 8 with repeated dosing of PHH spheroids every second day in serum-free medium as indicated. Cell viability was assessed by determining the ATP content as indicated above. EC50 values were determined using GraphPad Prism (GraphPad Software, USA).

For data set [3] the following is noted: human plasma Cmax; ref 21 (amiodarone), 22 (bosentan), 23 (diclofenac), 24 (fialuridine), 25 (tolcapone); read-out: In vivo Cmax; cited from earlier work.
For a further data set, the system named is patients. More on the design: method as in PMID 7565947. The settings on record: clinical trials, cited from earlier work.
The next data set concerns chimeric TK-NOG mice. Set-up: method as in PMID 24736310. As to conditions: mice carrying human hepatocytes; cited from earlier work.
The test system of data set [4] is Kupffer cells in co-culture spheroids. Briefly: LPS-induced IL-6 secretion in PHH/NPC co-culture spheroids (ELISA). Type of data set: cell-based, human. The settings on record: 10 μg/ml, 48 h; co-culture spheroids compared to PHH spheroids. As to the method: When used, co-cultures of cryopreserved PHH and non-parenchymal cells (NPCs; Bioreclamation IVT) originating from different donors were thawed and seeded at a ratio of 2:1 (PHH:NPC) and 2,000 viable cells per well into ultra-low attachment plates. Functionality of Kupffer cells was assessed by measuring lipopolysaccharide (LPS)-induced interleukin 6 (IL-6) secretion. LPS was added at a concentration of 10 μg/ml and supernatants were collected after 48 h. IL-6 levels were determined via ELISA (Thermo Scientific).

Data set [5] relates to PHH spheroids. Kind of data set: Toxicity in non-infected and adenovirus (AdGL)-infected PHH spheroids. As to conditions: for pEC50: Homo sapiens. Type of data set: cell-based, human. The protocol: Cell viability was assessed by determining the ATP content of single PHH spheroids with the CellTiter-Glo Luminescent Cell Viability Assay (Promega, Sweden). At the same time-points, cell culture medium was collected and albumin concentrations were determined by ELISA (Bethyl laboratories, USA). Absolute ATP and albumin values were normalized to spheroid volumes as determined from bright field imaging to compensate for compaction.
A recombinant adenovirus (AdGL) expressing green fluorescent protein (GFP; described in ref. [44]) was added during PHH spheroid seeding at a multiplicity of infection (MOI) of 0.1. PHH were seeded into GravityPLUS hanging-drop 96-well plates (InSphero, Zurich, Switzerland) at 1,500 viable cells per well. Spheroids were transferred to Gravity TRAP 96-well plates (InSphero) on day 7. Culture conditions were identical to the conditions for spheroids formed in ultra-low attachment plates.

Data set [6] relates to bile salt export pump (BSEP) mRNA. Briefly: BSEP mRNA expression in PHH spheroids (RT-qPCR). In kind it is cell-based, human. The settings on record: 5 μM. As to the method: (§1) PHH spheroids were dosed with 5 μM chlorpromazine every second day for 1 week. For the final exposure, 20 μM tauro-nor-THCA-25-DBD (Genomembrane Company Ltd., Yokohoma, Japan) was added. Bile acid accumulation was quantified and normalized to spheroid size using CellProfiler software.
Total RNA was isolated using Qiazol lysis reagent (Qiagen). RNA was reverse-transcribed into cDNA using SuperScript III reverse transcriptase and RT-qPCR analysis was performed using a TaqMan Universal mix on a 7500 Fast Real-Time PCR system.

In data set [7] the test system is PHH spheroids. Kind of data set: Bile acid accumulation (tauro-nor-THCA-25-DBD) in PHH spheroids. In kind it is cell-based, human. As to conditions: 5 μM every second day for 1 week; n = 3, p = 0.03. As to the method:
as §1

Setting [8] is: Homo sapiens, 672 h, PHH spheroids, dosing every second day, 28 days, read-out: EC50 (μM) 28d.
Where [9] appears, read: Homo sapiens, PHH spheroids, 48 h exposure, read-out: EC50 (μM) 48h.
Setting [10] is: Homo sapiens, PHH spheroids, dosing every second day, 7d (legend: 8 days), read-out: EC50 (μM) 7d.

pEC50: −log10 of the molar value.

Regarding `Cc1c(C)c2c(c(C)c1O)CC[C@@](C)(CCC[C@H](C)CCC[C@H](C)CCCC(C)C)O2` [α-tocopherol], in the data set on PHH spheroids [1], the “protection against cyclosporine A-induced neutral lipid accumulation” value is reported as “fully protected”.

For `O=C(O)Cc1ccccc1Nc1c(Cl)cccc1Cl` [Diclofenac, diclofenac], the EC50 with PHH spheroids [2] (setting [8]) is 45.9 µM; in the data set with PHH spheroids [2] (setting [9]) it was 191 µM; with PHH spheroids [2] (setting [10]), 56.8 µM.

As to `Cc1ccc(C(=O)c2cc(O)c(O)c([N+](=O)[O-])c2)cc1` [Tolcapone, tolcapone], in the data set on PHH spheroids [2], the “Fold changes in EC50 vs. 48 h (8 d)” value is on record as 2 fold. Also, the “Fold changes in EC50 vs. 48 h (28 d)” value in the data set on PHH spheroids [2] turned out to be 3.4 fold. Also, the EC50 with PHH spheroids [2] (setting [8]) is 5.6 µM; with PHH spheroids [2] (setting [9]) it was 18.8 µM; in the data set on PHH spheroids [2] (setting [10]) it was 9.4 µM. In the data set with PHH spheroids [2] (already after acute dosing), the “EC50 values related to reported in vivo Cmax” value is “lower than the reported in vivo Cmax values”.

On to `O=c1[nH]c(=O)n([C@@H]2O[C@H](CO)[C@@H](O)[C@@H]2F)cc1I` [Fialuridine, fialuridine], for which, in the data set on PHH spheroids [2], the “Fold changes in EC50 vs. 48 h (8 d)” value was 142.9 fold and the “Fold changes in EC50 vs. 48 h (28 d)” value was 1000 fold. Further, in the data set with PHH spheroids [2] (Homo sapiens, 672 h, PHH spheroids, repeated dosing, 4 weeks, read-out: EC50 after 4 weeks), the pEC50 was 7.00. Besides, the EC50 in the data set with PHH spheroids [2] (setting [9]) was > 100 µM. Also, the EC50 in the data set with PHH spheroids [2] (setting [10]) came out at 0.7 µM. The “toxicity observed after 48 h” value in the data set with PHH spheroids [2] (PHH spheroids, 48 h exposure) was “no toxicity”. Also, the Cmax in data set [3] is 1000 nM. In the data set with patients (of those with severe hepatotoxicity), the patients who died entry is reported as “five”. Besides, the “patients who developed severe hepatotoxicity” value in the data set on patients (several weeks after beginning treatment) is reported as 7/15. In the data set with chimeric TK-NOG mice, the hepatotoxicity result is “induced hepatotoxicity”.

With lipopolysaccharide [LPS], the IL-6 secretion entry in data set [4] is “substantial increase”.

Regarding `COc1ccccc1Oc1c(NS(=O)(=O)c2ccc(C(C)(C)C)cc2)nc(-c2ncccn2)nc1OCCO` [Bosentan, bosentan], in the data set on PHH spheroids [2], the “Fold changes in EC50 vs. 48 h (8 d)” value is on record as 3.6 fold. Also, the “Fold changes in EC50 vs. 48 h (28 d)” value in the data set with PHH spheroids [2] is given as 6.0 fold. Besides, the EC50 is 41.8 µM with PHH spheroids [2] (setting [8]), > 250 µM in the data set on PHH spheroids [2] (setting [9]) and 69.5 µM with PHH spheroids [2] (setting [10]).

Turning to `C[C@H]1COc2c(N3CCN(C)CC3)c(F)cc3c(=O)c(C(=O)O)cn1c23` [levofloxacin], the toxicity observed entry in the data set on PHH spheroids [5] (infected spheroids) and with PHH spheroids [5] (non-infected spheroids) was “no toxicity” in each case.

As to `CN(C)CCCN1c2ccccc2Sc2ccc(Cl)cc21` [chlorpromazine], the “BSEP mRNA expression” value in data set [6] is “down-regulation”. In addition, the “accumulation of fluorescently-labelled bile acid derivative tauro-nor-THCA-25-DBD” value in the data set on PHH spheroids [7] is “significant accumulation”.

Consider `N[C@@H]1[C@H]2CN(c3nc4c(cc3F)c(=O)c(C(=O)O)cn4-c3ccc(F)cc3F)C[C@@H]12` [Trovafloxacin, trovafloxacin], for which the pEC50 with PHH spheroids [5] (non-infected PHH spheroids) is 4.02; with PHH spheroids [5] (virus-infected PHH spheroids (AdGL, MOI 0.1)) it was 4.48. Moreover, the “enhancement of toxicity by viral infection” value in the data set on PHH spheroids [5] (infected vs non-infected spheroids, p < 0.001) was found to be 2.9 fold.
